≈ marks a conversion by molar mass, not a printed value.
Key:
[1] = test system: HCV replicon I389luc-ubi-neo/NS3-3'/5.1; assay: Anti-HCV replicon assay (luciferase activity) in Huh-5-2 cells; type: cell-based, Hepatitis C virus; settings: Hepatitis C virus, Huh-5-2, 72 h, concentration required to inhibit luciferase activity in the replicon system by 50%
How it was run: (§1)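 Huh-5-2 cells carrying the luciferase HCV replicon, seeded 24 h, then exposed to serial compound dilutions without G418 for 72 h at 37° C, 5% CO2. Replication read as luciferase luminescence, expressed as percentage of untreated cultures; culture density measured in parallel by MTS.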

[2] = test system: HCV replicon (RNA) synthesis; assay: Quantitative analysis of HCV replicon RNA by Taqman real-time RT-PCR in Huh-5-2 cells; type: cell-based, Hepatitis C virus; settings: for EC50: Hepatitis C virus, Huh-5-2, concentration required to reduce the synthesis of HCV replicon by 50% as determined by real-time quantitative RT-PCR; for CT: Huh-5-2 cells, untreated 26.27 ± 0.34; for Delta CT: higher Delta CT = more profound inhibition of viral RNA synthesis
Experimental: Replicon cells were plated at 7.5×10^3 cells per well in a 96-well plate plates at 37° C. and 5% CO2 in Dulbecco's modified essential medium containing 10% fetal calf serum, 1% nonessential amino acids and 1 mg/ml Geneticin. After allowing 24 h for cell attachment, different dilutions of compound were added to the cultures. Plates were incubated for 5 days, at which time RNA was extracted using the Qiamp Rneazyi Kit (Qiagen, Hilden, Germany). […] After initial activation of uracil-N-glycosylase at 50° C. for 2 minutes, RT was performed at 60° C. for 30 minutes, followed by inactivation of uracil-N-glycosylase at 95° C. for 5 minutes. Subsequent PCR amplification consisted of 40 cycles of denaturation at 94° C. for 20 seconds and annealing and extension at 62° C. for 1 minute in an ABI 7700 sequence detector. For each PCR run, negative template and positive template samples were used. The cycle threshold value (Ct-value) is defined as the number of PCR cycles for which the signal exceeds the baseline, which defines a positive value. The sample was considered to be positive if the Ct-value was <50. Results are expressed as genomic equivalents (GE).

[3] = Proliferation of exponentially growing Huh-5-2 cells (MTS method); settings: human, CC50, concentration required to inhibit the proliferation of exponentially growing Huh-5-2 cells by 50%
How it was run: as §1

Row | SMILES | IC50 [1] [µg/mL] | EC50 [2] [µg/mL] | further results
1 | COCCN1C(=O)c2ccccc2C(C(=O)Nc2ccc(Cl)cc2)C1c1cccs1 (stereo not shown) [C49, N-(4-chlorophenyl)-2-(2-methoxyethyl)-1-oxo-3-(thiophen-2-yl)-1,2,3,4-tetrahydroisoquinoline-4-carboxamide] | 0.1 (≈ 0.227 µM) | 0.85 (≈ 1.93 µM) | –
2 | COCCN1C(=O)c2c(ccc(OC)c2F)C(C(=O)Nc2cccc(OC)c2)C1c1cccs1 (stereo not shown) [C128, 8-fluoro-7-methoxy-2-(2-methoxyethyl)-N-(3-methoxyphenyl)-1-oxo-3-(thiophen-2-yl)-1,2,3,4-tetrahydroisoquinoline-4-carboxamide] | 0.4 (≈ 0.826 µM) | 0.14 (≈ 0.289 µM) | –
3 | COCCN1C(=O)c2ccccc2C(C(=O)Nc2ccc(-c3cnco3)cc2)C1c1cccs1 (stereo not shown) [C178, 2-(2-methoxyethyl)-N-(4-(oxazol-5-yl)phenyl)-1-oxo-3-(thiophen-2-yl)-1,2,3,4-tetrahydroisoquinoline-4-carboxamide] | 0.035 (≈ 0.0739 µM) | 0.036 (≈ 0.076 µM) | –
4 | COCCN1C(=O)c2cc(C)ccc2C(C(=O)Nc2cccc(OC)c2)C1c1cccs1 (stereo not shown) [C41, 2-(2-Methoxyethyl)-N-(3-methoxyphenyl)-7-methyl-1-oxo-3-(thiophen-2-yl)-1,2,3,4-tetrahydroisoquinoline-4-carboxamide] | 0.5 (≈ 1.11 µM) | 0.28 (≈ 0.621 µM) | CC50 at 72 h ([3]; Table 2): 107 µg/mL (≈ 238 µM); CC50 at 72 h ([3]; Table 4): > 50 µg/mL
5 | COCCN1C(=O)c2ccccc2C(C(=O)Nc2ccc(C(=O)OC)cc2)C1c1cccs1 (stereo not shown) [C45, Methyl 4-(2-(2-methoxyethyl)-1-oxo-3-(thiophen-2-yl)-1,2,3,4-tetrahydroisoquinoline-4-carboxamido)benzoate] | 0.1 (≈ 0.215 µM) | 12 (≈ 25.8 µM) | –
6 | COCCN1C(=O)c2ccccc2C(C(=O)Nc2ccc3nc(C)ccc3c2)C1c1cccs1 (stereo not shown) [C168, 2-(2-methoxyethyl)-N-(2-methylquinolin-6-yl)-1-oxo-3-(thiophen-2-yl)-1,2,3,4-tetrahydroisoquinoline-4-carboxamide] | 0.037 (≈ 0.0785 µM) | 0.048 (≈ 0.102 µM) | –
7 | COCCN1C(=O)c2ccccc2C(C(=O)Nc2ccc(-n3cccc3)cc2)C1c1cccs1 (stereo not shown) [C116, N-(4-(1H-pyrrol-1-yl)phenyl)-2-(2-methoxyethyl)-1-oxo-3-(thiophen-2-yl)-1,2,3,4-tetrahydroisoquinoline-4-carboxamide] | 0.04 (≈ 0.0848 µM) | 0.062 (≈ 0.131 µM) | CC50 at 72 h ([3]; Table 2): 72.4 µg/mL (≈ 154 µM); CC50 at 72 h ([3]; Table 4): > 50 µg/mL
8 | COc1cccc(NC(=O)C2c3ccccc3C(=O)N(CC3CCCO3)C2c2cccs2)c1 (stereo not shown) [C31, N-(3-methoxyphenyl)-1-oxo-2-((tetrahydrofuran-2-yl)methyl)-3-(thiophen-2-yl)-1,2,3,4-tetrahydroisoquinoline-4-carboxamide] | 1.1 (≈ 2.38 µM) | 18 (≈ 38.9 µM) | CC50 at 72 h ([3]; Table 2): 66.5 µg/mL (≈ 144 µM); CC50 at 72 h ([3]; Table 4): > 50 µg/mL
9 | COCCN1C(=O)c2ccccc2C(C(=O)Nc2cccc(OC)c2)C1c1cccs1 (stereo not shown) [2-(2-methoxyethyl)-N-(3-methoxyphenyl)-1-oxo-3-(thiophen-2-yl)-1,2,3,4-tetrahydroisoquinoline-4-carboxamide] | – | – | CT ([2]; 5 ug/ml): 28.65; Delta CT ([2]; 5 ug/ml): 2.38; CT ([2]; 10 ug/ml): 29.29; Delta CT ([2]; 10 ug/ml): 3.02; CT ([2]; 20 ug/ml): 29.24; Delta CT ([2]; 20 ug/ml): 2.97
10 | COCCN1C(=O)c2ccccc2C(C(=O)Nc2ccc(OC)c(OC)c2)C1c1cccs1 (stereo not shown) [C48, N-(3,4-dimethoxyphenyl)-2-(2-methoxyethyl)-1-oxo-3-(thiophen-2-yl)-1,2,3,4-tetrahydroisoquinoline-4-carboxamide] | 0.3 (≈ 0.643 µM) | 0.6 (≈ 1.29 µM) | –
11 | COCCN1C(=O)c2cc(F)ccc2C(C(=O)Nc2cccc(OC)c2)C1c1cccs1 (stereo not shown) [C52, 7-Fluoro-2-(2-methoxyethyl)-N-(3-methoxyphenyl)-1-oxo-3-(thiophen-2-yl)-1,2,3,4-tetrahydroisoquinoline-4-carboxamide] | 0.4 (≈ 0.88 µM) | < 0.4 | CC50 at 72 h ([3]; Table 2): 81.2 µg/mL (≈ 179 µM); CC50 at 72 h ([3]; Table 4): > 50 µg/mL
12 | COCCN1C(=O)c2ccccc2C(C(=O)Nc2ccc(-c3noc(C)n3)cc2)C1c1cccs1 (stereo not shown) [C187, 2-(2-methoxyethyl)-N-(4-(5-methyl-1,2,4-oxadiazol-3-yl)phenyl)-1-oxo-3-(thiophen-2-yl)-1,2,3,4-tetrahydroisoquinoline-4-carboxamide] | 0.01 (≈ 0.0205 µM) | < 0.016 | –
13 | COCCN1C(=O)c2ccccc2C(C(=O)Nc2ccc(-n3cccc3)cc2)C1c1ccc(Cl)s1 (stereo not shown) [C153, N-(4-(1H-pyrrol-1-yl)phenyl)-3-(5-chlorothiophen-2-yl)-2-(2-methoxyethyl)-1-oxo-1,2,3,4-tetrahydroisoquinoline-4-carboxamide] | 0.104 (≈ 0.206 µM) | 1.12 (≈ 2.21 µM) | –
14 | COCCN1C(=O)c2ccccc2C(C(=O)Nc2ccc(Oc3cncc(C)n3)cc2)C1c1cccs1 (stereo not shown) [C191, 2-(2-methoxyethyl)-N-(4-(6-methylpyrazin-2-yloxy)phenyl)-1-oxo-3-(thiophen-2-yl)-1,2,3,4-tetrahydroisoquinoline-4-carboxamide] | 0.013 (≈ 0.0253 µM) | 0.013 (≈ 0.0253 µM) | –
15 | C#CC1C(C(=O)Nc2ccc(-n3cccc3)cc2)c2ccccc2C(=O)N1CCOC (stereo not shown) [C152, N-(4-(1H-pyrrol-1-yl)phenyl)-3-ethynyl-2-(2-methoxyethyl)-1-oxo-1,2,3,4-tetrahydroisoquinoline-4-carboxamide] | 0.2 (≈ 0.484 µM) | 0.2 (≈ 0.484 µM) | CC50 at 72 h ([3]; Table 2): 30 µg/mL (≈ 72.6 µM); CC50 at 72 h ([3]; Table 4): > 30 µg/mL
16 | COCCN1C(=O)c2ccccc2C(C(=O)Nc2ccc(-c3ccccc3)nc2)C1c1cccs1 (stereo not shown) [C186, 2-(2-methoxyethyl)-1-oxo-N-(6-phenylpyridin-3-yl)-3-(thiophen-2-yl)-1,2,3,4-tetrahydroisoquinoline-4-carboxamide] | 0.04 (≈ 0.0827 µM) | 0.045 (≈ 0.0931 µM) | CC50 at 72 h ([3]; Table 2): 2.79 µg/mL (≈ 5.77 µM); CC50 at 72 h ([3]; Table 4): > 50 µg/mL
17 | COCCN1C(=O)c2ccccc2C(C(=O)Nc2ccc(-c3ncccn3)cc2)C1c1cccs1 (stereo not shown) [C175, 2-(2-methoxyethyl)-1-oxo-N-(4-(pyrimidin-2-yl)phenyl)-3-(thiophen-2-yl)-1,2,3,4-tetrahydroisoquinoline-4-carboxamide] | 0.057 (≈ 0.118 µM) | 0.046 (≈ 0.0949 µM) | –
18 | COCCN1C(=O)c2c(F)cccc2C(C(=O)Nc2cccc(OC)c2)C1c1cccs1 (stereo not shown) [C51, 8-Fluoro-2-(2-methoxyethyl)-N-(3-methoxyphenyl)-1-oxo-3-(thiophen-2-yl)-1,2,3,4-tetrahydroisoquinoline-4-carboxamide] | 0.5 (≈ 1.1 µM) | < 0.4 | –
19 | COCCN1C(=O)c2ccccc2C(C(=O)Nc2cccc(F)c2)C1c1cccs1 (stereo not shown) [C47, N-(3-fluorophenyl)-2-(2-methoxyethyl)-1-oxo-3-(thiophen-2-yl)-1,2,3,4-tetrahydroisoquinoline-4-carboxamide] | 0.4 (≈ 0.942 µM) | 1.42 (≈ 3.35 µM) | –
20 | COCCN1C(=O)c2ccccc2C(C(=O)Nc2ccc(-c3csc(C)n3)cc2)C1c1cccs1 (stereo not shown) [C157, 2-(2-methoxyethyl)-N-(4-(2-methylthiazol-4-yl)phenyl)-1-oxo-3-(thiophen-2-yl)-1,2,3,4-tetrahydroisoquinoline-4-carboxamide] | 0.04 (≈ 0.0794 µM) | 0.036 (≈ 0.0715 µM) | –
21 | COCCN1C(=O)c2ccccc2C(C(=O)Nc2cc(C(C)(C)C)on2)C1c1cccs1 (stereo not shown) [C142, N-(5-tert-butylisoxazol-3-yl)-2-(2-methoxyethyl)-1-oxo-3-(thiophen-2-yl)-1,2,3,4-tetrahydroisoquinoline-4-carboxamide] | 0.04 (≈ 0.0882 µM) | 0.22 (≈ 0.485 µM) | –

Reference: patent US20110224208A1, “NOVEL INHIBITORS OF FLAVIVIRUS REPLICATION” (KATHOLIEKE UNIVERSITEIT LEUVEN, K.U. LEUVEN R&D, priority 2008, published 2011)
